Reference: patent publication US8658687B2, “Injectable formulations containing asenapine and method of treatment using same” (Merck Sharp & Dohme Corp., priority 2009, dated 2014)

Experiments:
[1] = In vitro dissolution in USP paddle stirring dissolution apparatus; conditions: for rate of dissolution, Form I compared with Form II (FIG. 8a): phosphate buffered saline 10 mM pH 7.0, 37° C., 100 RPM, similar particle size fractions
Protocol: To carry out these studies, particle, fractions of crystalline Form II of asenapine hemipamoate having d50, values of 3.5 microns, 7 microns, and 20 microns respectively, (see FIG. 7e) were obtained and placed into one of the dissolution vessels of the apparatus. Prior to charging a dissolution vessel with an aliquot of particles, each of the vessels was filled with 1 L of phosphate buffered saline (10 mM, adjusted to pH 7.0) and fitted with a probe that contained a mirror and optical arrangement in its tip defining a fixed sample path. Each probe was optically connected to a central light source and detector permitting real-time photometric monitoring of the concentration of asenapine in solution as dissolution proceeded during the investigation.
The particle fractions were prepared for use in the apparatus by dispersing the sample (20 mg) in 1 mL of an aqueous solution comprising 3 wt. % macrogol 3400, 0.118 wt. % of disodium hydrogen phosphate, 0.047 wt. % sodium dihydrogen phosphate and 0.76 wt. % sodium chloride. Each determination was carried out by adjusting the apparatus to the desired dissolution conditions (temperature, paddle speed, pH of dissolution media) and injecting 50 microliter of the selected crystalline Form II of asenapine hemipamoate dispersion (equivalent to 1 mg of crystalline Form II of asenapine hemipamoate) into a dissolution vessel filled with the desired dissolution medium. Asenapine hemipamoate concentration in the dissolution medium was monitored optically using the probe system described above during the course of the dissolution.
The above-described in vitro testing methodology was used to compare the dissolution of crystalline crystalline Form I of asenapine hemipamoate hemipamoate (as precipitated) and crystalline Form II of asenapine hemipamoate (as precipitated). Accordingly, 20 mg of a particle fraction of crystalline Form I of asenapine hemipamoate having a d50 value of 19 microns, a d90 value of 41 microns and a d10 value of 3 microns was dispersed into 2 mL of a polysorbate 80 solution. An aliquot of 100 microliter of the dispersion was introduced into dissolution medium contained in a paddle stirring apparatus as described above. For these tests the dissolution vessels of the apparatus were filled with 1 L of phosphate buffered saline (10 mM, adjusted to pH 7.0). The temperature of the dissolution medium was maintained at 37° C. and the apparatus paddle speed was set at 100 RPM.
For comparison, a 100 microliter sample of a dispersion comprising 100 mg of crystalline Form II of asenapine hemipamoate particle fraction having a d50 value of 16 microns, a d90 value of 50 microns, and a d10 value of 2 microns, dispersed in 1 mL of a polysorbate 80 solution, as described above was studied under the same conditions and dissolution medium used to study the sample containing crystalline Form I of asenapine hemipamoate.

[2] = Plasma levels of asenapine after IM depot injection in rabbits; type: in vivo, New Zealand white rabbits; conditions: 1 mL IM injection, 20 wt % suspension, Form I mean particle size 20 micron, Form II 16 micron, rabbit
Protocol: Each of the formulations prepared in Example 2 were administered to a series of experimental animal subjects (New Zealand white rabbits) as a depot injection. A depot of 1 mL volume of the formulation selected was administered into the left limb of the subject. At time intervals following injection, blood samples were collected from the subject's ear artery in 0.03 mL of 0.2M EDTA, Samples were collected at 1, 3, and 6 hours post injection, then 1, 2, 3, and 6 days post injection, then on days 10, 13, 17, 20, 24 and 25. Once collected, blood samples were centrifuged for 2 min. at room temperature (125,000 N/kg). Plasma samples thus obtained were analyzed by LC/MS after adding an internal standard. The asenapine and internal standard were isolated from the sample by solid phase extraction. […]
In additional animal studies, and with Reference to FIG. 10, using the same procedures described above, suspensions comprising 20 wt % of asenapine hemipamoate of Form I (mean particle size of 20 micron) and Form II (mean particle size 16 micron) were prepared. […] Plasma levels of asenapine were determined using the above-described procedure. […]

[3] = Solubility in aqueous phosphate buffer at pH 7
[4] = Stability of particles suspended in pH 7 phosphate buffer on storage, crystal form followed by DSC; type: physicochemical; conditions: suspended in phosphate buffer pH 7, stored at 30° C. and 40° C.
Protocol: With reference to FIG. 2a, the conversion of Form I to Form II was monitored by periodically taking aliquots of the stored suspension, isolating the suspended solids by filtration and drying the isolated solids at room temperature. DSC analysis was performed on the isolated, dried solids using a 10 mg sample of the solids and a Mettler DSC 822e programmed to heat at a rate of 10° C./min, from 25° C. to 250° C. The results of this study are presented in, with the result shown in the upper traces of FIG. 2a.

[5] = Plasma concentration of asenapine after depot injection in patients with stable chronic schizophrenia; type: in vivo, human; conditions: 1.0 mL of 20 wt % suspension in deltoid muscle, d50 10 microns
Protocol: Formulations of the invention were studied in human patients diagnosed with stable chronic schizophrenia. Using the same procedure described above, a suspension was prepared comprising 20 wt % of crystalline Form II of asenapine hemipamoate. The Form II particle fraction employed to prepare the suspension yielded a d10 value of 3 microns, a d90 value of 27 microns and a d50 value of 10 microns. An injection of 1.0 mL volume of the suspension was administered in the deltoid muscle of the upper arm by inserting the needle in the thickest part of the deltoid muscle at a 90 degree angle to the skin, followed by aspiration for 5 to 10 seconds, followed by injection of the depot over a 10 second interval. The plasma concentration of asenapine provided by the depot was observed using the above-described procedure.

[6] = IM depot of suspended olanzapine pamoate particles; cited from earlier work
[7] = IM depot injection, mean particle diameter 6.63, 10.68, 17.16 or 29.96 microns, dogs; cited from earlier work

SMILES: CN1C[C@@H]2c3ccccc3Oc3ccc(Cl)cc3[C@H]2C1.CN1C[C@@H]2c3ccccc3Oc3ccc(Cl)cc3[C@H]2C1.O=C(O)c1cc2ccccc2c(Cc2c(O)c(C(=O)O)cc3ccccc23)c1O [crystalline Form I of asenapine hemipamoate] [reference compound]
- rate of dissolution, Form I compared with Form II (FIG. 8a) [1]: significantly higher
- initial plasma levels, Form I versus Form II (FIG. 10) [2]: burst release
- solubility of Form I relative to Form II [3]: approximately 4 times
- stability of crystalline form on storage of suspension (DSC of recovered solids) [4]: slowly converted to crystalline Form II of asenapine hemipamoate

SMILES: CN1C[C@@H]2c3ccccc3Oc3ccc(Cl)cc3[C@H]2C1.CN1C[C@@H]2c3ccccc3Oc3ccc(Cl)cc3[C@H]2C1.O=C(O)c1cc2ccccc2c(Cc2c(O)c(C(=O)O)cc3ccccc23)c1O [crystalline Form II of asenapine hemipamoate]
- period of controlled release of asenapine (FIG. 11) [5]: about 4 weeks
- effect of temperature of dissolution medium on dissolution behavior (FIG. 7b) ([1]; 35° C. to 39° C.): reasonably insensitive to variation in temperature
- effect of paddle speed on dissolution behavior (FIG. 7d) ([1]; 50 rpm to 150 rpm): reasonably insensitive to variation in the paddle speed
- effect of dissolution medium pH on rate of dissolution (FIG. 7c) ([1]; pH 6 to pH 8, d50 3.5 or 20 micron fractions): does not significantly vary the rate of dissolution
- rate of dissolution, Form I compared with Form II (FIG. 8a) [1]: dissolve much slower
- effect of d50 value of particle fraction on rate of dissolution (FIG. 7a) ([1]; same conditions, d50 3.5, 7, 20 microns): greatly influenced by the d50 value
- stability of crystalline form on storage of suspension (DSC of recovered solids) [4]: does not decompose or convert to any other crystalline form

SMILES: Cc1cc2c(s1)Nc1ccccc1N=C2N1CCN(C)CC1.O.O=C(O)c1cc2ccccc2c(Cc2c(O)c(C(=O)O)cc3ccccc23)c1O [olanzapine pamoate]
- adverse events in trials [6]: extreme sedation and reversible coma

SMILES: CCC1(c2ccccc2)C(=O)NC(=O)NC1=O [phenobarbital]
- plasma concentrations of phenobarbital versus mean particle diameter (FIG. 1) [7]: tracked inversely with the mean particle diameter
